Data from patent US20070014803A1, “METHODS AND COMPOSITIONS FOR DIAGNOSIS AND TREATMENT OF VIRAL AND BACTERIAL INFECTIONS” (Arbor Vita Corporation, priority 2005, published 2007).
Where no end group is shown, it is not given here.

Columns and labels:
Assay in all cases: MATRIX screen against PDZ library (modified G assay)
Type in all cases: binding
Conditions in all cases: pre-incubation conditions
[1] = target: T1, Shank 3 (Homo sapiens, UniProt Q9BYB0)
T1 construct: made in house
Procedure: (§1) Matrix graphPeptides and proteins were tested in an array format constituting a near complete set (255) of all the different PDZ domains in the human genome. Each PDZ domain polypeptide was expressed as a recombinant GST-PDZ polypeptide in a commercial glutathione S-transferase tagged expression system. Specific binding of biotinylated-PL peptides to PDZ domain polypeptides was detected using streptavidin-HRP and TMB substrate. Similarly, specific binding of PL protein-MBP fusion proteins to PDZ domain polypeptides was visualized using biotinylated anti-MBP, streptavidin-HRP and TMB substrate. The relative strength of binding was analyzed and the strong and weak binders are shown for each PL. A PDZ protein that binds more strongly is preferable when used for capturing or identifying PL proteins.
(§2) Two different types of ELISA assays were used to test the HIV Peptides 1904 and 1905. The primary MATRIX screen against all PDZ proteins in the library was performed under pre-incubation conditions, which are a modification of the G assay. A pre-incubation assay incubates the peptide with the HRP-streptavidin before addition of the mixture to the PDZ-coated plate. The subsequent titrations of the peptide against the PDZs of interest were performed under normal ELISA G assay conditions. In normal conditions the peptide is incubated on the PDZ coated plate before the later addition of the HRP-streptavidin. The reagents and supplies for both assays are listed below, as well as the two different protocols.
(§3) The PRISM Matrix ELISA modified G Assay was also used for pre-incubation and for the MATRIX assay. The protocol was as follows.
(§4) 1. Coat plate with 100 μl of 5 μg/ml anti-GST, O/N @ 4° C.
(§5) 2. Dump contents out of plate and tap dry on paper towels
(§6) 3. Block with 200 μl Assay Buffer for 1 to 2 hrs at room temperature
(§7) 4. Prepare proteins in Assay Buffer
(§8) 5. Wash plate 3× with cold PBS*
(§9) 6. Add proteins at 50 μl per well, incubate 1 to 2 hrs at 4° C.
(§10) 7. Prepare peptides in Assay Buffer:
(§11) • Prepare peptides in half of volume need with double of desired concentration. • Dilute HRP (1:1000) in another half of volume (same volume with peptide) then mix with peptides. • Incubate the peptide-HRP mixtures for 20 minutes at RT 8. Wash plate 3× with cold PBS* 9. Add peptide-HRP mixtures at 50 μl per well (write time on plate) 10. Incubate at RT after last peptide has been added for exactly 30 minutes 11. Turn on plate reader and prepare files 12. Promptly wash plate 5× with room temperature PBS 13. Add 100 μl/well TMB substrate (write time on plate) 14. Incubate in dark at room temp for a maximum of 30 minutes 15. Stop reaction with 100 μl of 0.18M H2SO4, 30 min. after adding TMB 16. Take last reading at 450 nm soon after stopping reaction

[2] = target: T2, Shank 2 (Homo sapiens, UniProt Q9UPX8)
T2 construct: made in house
Procedure: as §1, §2, §3, §4, §5, §6, §7, §8, §9, §10, §11

[3] = target: T3, Magi1 d1 (Homo sapiens, UniProt Q96QZ7)
T3 construct: made in house
Procedure: as §1, §2, §3, §4, §5, §6, §7, §8, §9, §10, §11

[4] = target: T4, SITAC-18 d2 (Homo sapiens, UniProt Q9H190)
T4 construct: made in house
Procedure: as §1, §2, §3, §4, §5, §6, §7, §8, §9, §10, §11

[5] = target: T5, MUPP1d3 (Homo sapiens, UniProt O75970)
T5 construct: made in house
Procedure: as §1, §2, §3, §4, §5, §6, §7, §8, §9, §10, §11

[6] = target: T6, MINT1 d1, 2 (Homo sapiens, UniProt Q02410)
T6 construct: MINT1 d1, 2; made in house
Procedure: as §1, §2, §3, §4, §5, §6, §7, §8, §9, §10, §11

[7] = target: T7, RhophilinLike (Homo sapiens, UniProt Q8TCX5)
T7 construct: made in house
Procedure: as §1, §2, §3, §4, §5, §6, §7, §8, §9, §10, §11

[8] = target: T8, GORASP1 d1 (Homo sapiens, UniProt Q9BQQ3)
T8 construct: made in house
Procedure: as §1, §2, §3, §4, §5, §6, §7, §8, §9, §10, §11

[9] = target: T9, PAR3L d3 (Homo sapiens, UniProt Q8TEW8)
T9 construct: made in house
Procedure: as §1, §2, §3, §4, §5, §6, §7, §8, §9, §10, §11

[10] = target: T10, NOS1 (Homo sapiens, UniProt P29475)
T10 construct: made in house
Procedure: as §1, §2, §3, §4, §5, §6, §7, §8, §9, §10, §11

T1 sequence (Q9BYB0 638-747): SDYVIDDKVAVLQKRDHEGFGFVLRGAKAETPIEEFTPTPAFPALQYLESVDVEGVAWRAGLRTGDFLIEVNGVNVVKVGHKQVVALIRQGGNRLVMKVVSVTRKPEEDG
T3 sequence (Q96QZ7 with tags, fused parts or gaps): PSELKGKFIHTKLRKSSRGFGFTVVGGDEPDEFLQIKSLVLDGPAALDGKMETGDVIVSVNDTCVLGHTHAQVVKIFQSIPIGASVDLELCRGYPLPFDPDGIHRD
T6 sequence (Q02410 651-828): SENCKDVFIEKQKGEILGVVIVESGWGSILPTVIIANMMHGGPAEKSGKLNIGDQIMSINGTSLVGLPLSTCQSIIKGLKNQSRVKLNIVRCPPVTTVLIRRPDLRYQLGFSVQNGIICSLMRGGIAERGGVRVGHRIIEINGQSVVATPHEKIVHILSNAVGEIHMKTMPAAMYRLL
T7 sequence (Q8TCX5 with tags, fused parts or gaps): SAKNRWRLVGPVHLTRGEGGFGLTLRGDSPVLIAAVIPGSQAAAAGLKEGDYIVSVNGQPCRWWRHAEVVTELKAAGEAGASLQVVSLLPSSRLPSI
T9 sequence (Q8TEW8 with tags, fused parts or gaps): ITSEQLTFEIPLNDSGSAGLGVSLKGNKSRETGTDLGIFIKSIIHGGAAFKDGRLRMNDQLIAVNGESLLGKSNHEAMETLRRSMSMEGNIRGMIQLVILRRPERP
T2 sequence (Q9UPX8 with tags, fused parts or gaps): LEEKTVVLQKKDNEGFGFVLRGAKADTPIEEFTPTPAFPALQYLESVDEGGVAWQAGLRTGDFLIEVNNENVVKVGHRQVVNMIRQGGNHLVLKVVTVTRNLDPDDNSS
T4 sequence (Q9H190 with tags, fused parts or gaps): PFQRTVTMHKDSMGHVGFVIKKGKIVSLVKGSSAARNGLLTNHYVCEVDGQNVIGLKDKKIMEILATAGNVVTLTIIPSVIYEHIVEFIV
T10 sequence (P29475 11-100): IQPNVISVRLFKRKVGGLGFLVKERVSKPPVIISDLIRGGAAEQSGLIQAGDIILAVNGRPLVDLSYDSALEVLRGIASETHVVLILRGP
T8 sequence (Q9BQQ3 1-110): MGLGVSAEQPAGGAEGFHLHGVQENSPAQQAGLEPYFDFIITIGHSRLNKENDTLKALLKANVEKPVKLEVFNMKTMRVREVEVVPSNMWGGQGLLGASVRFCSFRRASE
T5 sequence (O75970 with tags, fused parts or gaps): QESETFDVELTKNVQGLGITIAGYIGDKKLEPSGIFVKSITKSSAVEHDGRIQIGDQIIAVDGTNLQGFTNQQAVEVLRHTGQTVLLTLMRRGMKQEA

## YGRKKRRQRRRRQGFERALL-OH [Peptide 1905]
[1]
  Intensity of Hit, PDZ Shank 3: STRONG
[2]
  Intensity of Hit, PDZ Shank 2: STRONG

## YGRKKRRQRRRRQGLERILL-OH [Peptide 1904]
[3]
  Intensity of Hit, PDZ Magi1 d1: STRONG
[4]
  Intensity of Hit, PDZ SITAC-18 d2: STRONG
[5]
  Intensity of Hit, PDZ MUPP1d3: WEAK
[6]
  Intensity of Hit, PDZ MINT1 d1, 2: STRONG
[7]
  Intensity of Hit, PDZ RhophilinLike: STRONG
[8]
  Intensity of Hit, PDZ GORASP1 d1: STRONG
[9]
  Intensity of Hit, PDZ PAR3L d3: STRONG
[10]
  Intensity of Hit, PDZ NOS1: STRONG
